What was measured:
[1] = test system: PBMCs from asymptomatic HLA-A*02:01 Chagas disease patients; experiment: HLA-A*02:01 restriction assay: peptide-pulsed K562-A2 cells as APC, IFN-γ secretion by patient PBMC; format: cell-based, human; settings: K562-A2 cells pulsed with 1 mM peptide 1 h, co-cultured 30 h with PBMC of asymptomatic (IND) patients; positive = IFN-γ at least two folds un-stimulated cells
[2] = molecular target: HLA-A*02:01 (Homo sapiens, UniProt P04439, D140Y/D185E/D98H/E176V/E277Q/G131W/G231S/I119V/I121R/I166T/I218V/L300P/L318F/N151K/N90K/P208A/P217A/Q86G/Q94H/R138H/R169H/T345S); experiment: HLA-A*02:01 binding assay (surface stabilization on TAP-deficient T2 cells); settings: different peptide concentrations in duplicate, serum-free RPMI, overnight at room temperature, PE anti-HLA-A2 (BB7.2) flow cytometry, referred to 25 μM HB-ENV335-343 peptide
Procedure: TAP-deficient T2 cells were used for the HLA-A*02:01 binding assays and the K562-A2 cells for the HLA-A*02:01 restriction assay. The cells were cultured in complete RPMI medium supplemented with 10% of inactivated Fetal Calf Serum (iFCS), 2 mM glutamine, and 100 U/ml penicillin. K562-A2 cells, expressing the HLA-A*02:01 molecule were cultured in the presence of […] of G-418, as previously described. The T2 and K562-A2 cells were kindly provided by Dr. Pedro Romero (University of Lausanne) and by Dr Peter Ponsaerts (University of Antwerp, with the permission of Dr. Cedrik Britten from Johanes Gutenberg-University Mainz), respectively.
HLA-A*02:01 surface stabilization test was carried out as described in [42]. Briefly, TAP-deficient T2 cells were loaded with different concentrations of each peptide, in duplicate in serum-free RPMI medium, and incubated overnight at room temperature. Afterwards, the cells were stained with a PE-labeled HLA-A2-specific antibody (BB7.2 clone, BD biosciences) and analyzed by flow cytometry. The high-affinity HLA-A*02:01-binding peptide […] ([…]) was included as internal standard. Affinity data were calculated as the percentage of maximum complex stabilization, as described in [44]. The following equation was used: % of maximal stabilization = 100 x [(mean fluorescence with peptide)–(background mean fluorescence)]/[(mean fluorescence with 25 μM HBENV335-343 peptide)–(background mean fluorescence)]. Background value was obtained with cells incubated in the same conditions without peptide.
The percentage of maximal binding stabilization of these eight TcCA-2 peptides was evaluated using TAP-deficient T2 cells and different concentrations of each peptide. […] The maximal binding affinity is shown for each peptide in Table 1.

Sequence	Chagas disease patient: patients with positive response in relation with the total number of patients per assay [1]	% maximal stabilization [2] [%]
SAFGNHASTV [TcCA-2_550-559]	0/9	19.07
FANAPGVAQV [TcCA-2_452-461]	0/10	46.23
AIGGGKLPAL [TcCA-2_531-540]	0/9	20.89
SILQNVHATL [TcCA-2_489-498]	0/8	36.02
